ChEMBL document CHEMBL4480418, “Antibacterial activity of indolyl-quinolinium derivatives and study their mode of action” (Bioorg Med Chem, 2019)
Calls of active or inactive are those of the source. The calls are words filed in the database; no cut-off is given here.

Experiments:
[1] = tested on: Staphylococcus aureus; assay: Antimicrobial activity against methicillin-resistant Staphylococcus aureus ATCC 43300 measured after 18 hrs by broth microdilution method; format: functional; conditions: ATCC 43300, 18 h
[2] = target: T1, Cell division protein FtsZ (Staphylococcus aureus) (UniProt P0A031); assay: Inhibition of Staphylococcus aureus FtsZ GTPase activity at 64 ug/ml preincubated for 10 mins followed by GTP addition and measured after 30 mins relative to control
T1 sequence (whole entry): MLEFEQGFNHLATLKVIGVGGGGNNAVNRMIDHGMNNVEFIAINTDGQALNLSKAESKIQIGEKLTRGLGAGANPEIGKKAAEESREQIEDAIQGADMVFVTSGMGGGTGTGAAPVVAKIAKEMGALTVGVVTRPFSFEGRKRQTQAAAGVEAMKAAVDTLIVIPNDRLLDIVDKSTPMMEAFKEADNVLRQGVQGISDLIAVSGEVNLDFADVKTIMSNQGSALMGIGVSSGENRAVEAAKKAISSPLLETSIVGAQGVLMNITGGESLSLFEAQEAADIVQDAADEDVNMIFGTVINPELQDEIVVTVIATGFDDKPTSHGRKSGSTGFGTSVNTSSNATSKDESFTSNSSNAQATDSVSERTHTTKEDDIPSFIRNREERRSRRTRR

[3] = tested on: Staphylococcus aureus; assay: Ratio of MBC to MIC for penicillin-resistant Staphylococcus aureus ATCC 29213; format: functional
[4] = tested on: Bacillus subtilis; assay: Disruption of membrane integrity in Bacillus subtilis 168 at MIC after 4 hrs by FM4-64 dye based confocal microscopic method; format: organism-based, subsp. subtilis str. 168
[5] = tested on: Staphylococcus aureus; assay: Antimicrobial activity against penicillin-resistant Staphylococcus aureus ATCC 29213 assessed as ratio of MIC after and before 15 serial passages preincubated followed by replating and measured after 24 hrs; format: functional
[6] = tested on: Acinetobacter baumannii; assay: Antimicrobial activity against multidrug-resistant Acinetobacter baumannii ATCC 19606 measured after 18 hrs by broth microdilution method; format: functional; conditions: ATCC 19606 = CIP 70.34 = JCM 6841, 18 h
[7] = tested on: Bacillus subtilis; assay: Antibacterial activity against Bacillus subtilis 168 measured after 18 hrs by broth microdilution method; format: functional; conditions: subsp. subtilis str. 168, 18 h
[8] = tested on: Pseudomonas aeruginosa; assay: Antimicrobial activity against multidrug-resistant Pseudomonas aeruginosa ATCC BAA-2108 measured after 18 hrs by broth microdilution method; format: functional; conditions: ATCC BAA-2108, 18 h
[9] = target: T2, Cell division protein FtsZ (Bacillus subtilis (strain 168)) (UniProt P17865); assay: Inhibition of cell division function of FtsZ in Bacillus subtilis 168 assessed as cell length at MIC after 4 hrs by FM4-64 dye based confocal microscopic method; conditions: Bacillus subtilis subsp. subtilis str. 168
T2 sequence (whole entry): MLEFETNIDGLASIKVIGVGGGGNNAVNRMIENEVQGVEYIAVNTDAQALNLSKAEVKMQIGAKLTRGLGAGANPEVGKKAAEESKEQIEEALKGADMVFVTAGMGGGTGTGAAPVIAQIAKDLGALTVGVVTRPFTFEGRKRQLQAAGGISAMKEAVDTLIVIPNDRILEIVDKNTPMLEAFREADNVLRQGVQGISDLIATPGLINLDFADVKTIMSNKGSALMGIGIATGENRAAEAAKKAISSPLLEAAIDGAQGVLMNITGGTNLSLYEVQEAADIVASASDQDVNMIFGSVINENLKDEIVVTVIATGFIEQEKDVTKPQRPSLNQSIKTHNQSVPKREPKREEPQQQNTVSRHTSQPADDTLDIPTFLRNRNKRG

[10] = target: T1, Cell division protein FtsZ (Staphylococcus aureus); assay: Inhibition of recombinant Staphylococcus aureus FtsZ polymerization by 90 degree light scattering-based fluorescence spectrometric analysis
[11] = tested on: Klebsiella pneumoniae; assay: Antimicrobial activity against NDM1 beta-lactamase expressing Klebsiella pneumoniae ATCC BAA-2470 measured after 18 hrs by broth microdilution method; format: functional; conditions: ATCC BAA-2470, 18 h
[12] = tested on: Enterococcus faecium; assay: Antimicrobial activity against drug-susceptible Enterococcus faecium ATCC 49624 measured after 18 hrs by broth microdilution method; format: functional; conditions: ATCC 49624, 18 h
[13] = tested on: Enterococcus faecalis; assay: Antimicrobial activity against Enterococcus faecalis ATCC 29212 measured after 18 hrs by broth microdilution method; format: functional; conditions: ATCC 29212, 18 h
[14] = tested on: Escherichia coli; assay: Antibacterial activity against FtsZ over-expressing Escherichia coli BL21 measured after 18 hrs by broth microdilution method; format: functional; conditions: BL21, 18 h
[15] = tested on: Enterobacter cloacae; assay: Antimicrobial activity against Ampc beta-lactamase expressing Enterobacter cloacae ATCC BAA-1143 measured after 18 hrs by broth microdilution method; format: functional; conditions: ATCC BAA-1143, 18 h
[16] = target: T1, Cell division protein FtsZ (Staphylococcus aureus); assay: Inhibition of recombinant Staphylococcus aureus FtsZ polymerization at 0.4 to 1.2 ug/ml by 90 degree light scattering-based fluorescence spectrometric analysis; conditions: TDE = time-dependent effect
[17] = tested on: Escherichia coli; assay: Antibacterial activity against Escherichia coli BL21 measured after 18 hrs by broth microdilution method; format: functional; conditions: BL21, 18 h
[18] = tested on: Staphylococcus aureus; assay: Bactericidal activity against methicillin-resistant Staphylococcus aureus ATCC BAA-41 assessed as bacterial load at 1 to 4 times MIC incubated for 24 hrs followed by replating on MH agar and measured after 24 hrs by time-kill assay; format: functional
[19] = tested on: Escherichia coli; assay: Antimicrobial activity against Escherichia coli ATCC 25922 measured after 18 hrs by broth microdilution method; format: functional; conditions: ATCC 25922, 18 h
[20] = tested on: Staphylococcus aureus; assay: Antimicrobial activity against penicillin-resistant Staphylococcus aureus ATCC 29213 measured after 18 hrs by broth microdilution method; format: functional; conditions: ATCC 29213, 18 h
[21] = tested on: Staphylococcus aureus; assay: Antimicrobial activity against methicillin-resistant Staphylococcus aureus ATCC BAA-41 measured after 18 hrs by broth microdilution method; format: functional; conditions: ATCC BAA-41, 18 h
[22] = target: T1, Cell division protein FtsZ (Staphylococcus aureus); assay: Inhibition of Staphylococcus aureus FtsZ GTPase activity preincubated for 10 mins followed by GTP addition and measured after 30 mins
[23] = target: T1, Cell division protein FtsZ (Staphylococcus aureus); assay: Inhibition of Staphylococcus aureus FtsZ GTPase activity at 32 ug/ml preincubated for 10 mins followed by GTP addition and measured after 30 mins relative to control
[24] = tested on: Staphylococcus aureus; assay: Bactericidal activity against penicillin-resistant Staphylococcus aureus ATCC 29213 incubated for 18 hrs followed by replating on TSB agar and measured after 24 hrs by broth microdilution method; format: functional
[25] = tested on: Enterococcus faecium; assay: Antimicrobial activity against vancomycin-resistant Enterococcus faecium ATCC 700221 measured after 18 hrs by broth microdilution method; format: functional; conditions: ATCC 700221, 18 h
[26] = tested on: Escherichia coli; assay: Antimicrobial activity against NDM1 beta -lactamse expressing Escherichia coli ATCC BAA-2469 measured after 18 hrs by broth microdilution method; format: functional; conditions: ATCC BAA-2469, 18 h
[27] = target: T1, Cell division protein FtsZ (Staphylococcus aureus); assay: Inhibition of Staphylococcus aureus FtsZ GTPase activity at 16 ug/ml preincubated for 10 mins followed by GTP addition and measured after 30 mins relative to control
[28] = tested on: Staphylococcus aureus; assay: Antimicrobial activity against Staphylococcus aureus ATCC 25923 measured after 18 hrs by broth microdilution method; format: functional; conditions: ATCC 25923, 18 h
[29] = tested on: Staphylococcus aureus; assay: Bactericidal activity against methicillin-resistant Staphylococcus aureus ATCC BAA-41 assessed as reduction in bacterial load at 2 to 4 times MIC incubated for 4 hrs followed by replating on MH agar and measured after 24 hrs by time-kill assay; format: functional, organism-based
[30] = target: T1, Cell division protein FtsZ (Staphylococcus aureus); assay: Inhibition of Staphylococcus aureus FtsZ GTPase activity at 4 ug/ml preincubated for 10 mins followed by GTP addition and measured after 30 mins relative to control
[31] = tested on: Staphylococcus aureus; assay: Bactericidal activity against methicillin-resistant Staphylococcus aureus ATCC BAA-41 incubated for 18 hrs followed by replating on TSB agar and measured after 24 hrs by broth microdilution method; format: functional
[32] = tested on: Staphylococcus aureus; assay: Bactericidal activity against methicillin-resistant Staphylococcus aureus ATCC BAA-41 assessed as reduction in bacterial load incubated for 1 to 24 hrs followed by replating on MH agar and measured after 24 hrs by time-kill assay; format: functional, organism-based
[33] = target: T1, Cell division protein FtsZ (Staphylococcus aureus); assay: Inhibition of Staphylococcus aureus FtsZ GTPase activity at 1 ug/ml preincubated for 10 mins followed by GTP addition and measured after 30 mins relative to control
[34] = tested on: Staphylococcus aureus; assay: Ratio of MBC to MIC for methicillin-resistant Staphylococcus aureus ATCC BAA-41; format: functional
[35] = target: T2, Cell division protein FtsZ (Bacillus subtilis (strain 168)); assay: Inhibition of cell division function of FtsZ in Bacillus subtilis 168 assessed as increase in cell length at MIC after 4 hrs by FM4-64 dye based confocal microscopic method; conditions: Bacillus subtilis subsp. subtilis str. 168

For `C[n+]1c(/C=C/c2cc3ccccc3[nH]2)cc(N2CCCCC2)c2ccccc21.[I-]`, the MIC [1] was 2 µg/mL, the inhibition [2] was 52.1% and the Ratio [3] was 2. For the same compound, the Activity [4] was “Non-Toxic”, the Ratio [5] was 4 and the MIC [6] was 32 µg/mL. For the same compound, the MIC [7] was 4 µg/mL, the MIC [8] was greater than 64 µg/mL and the Activity [9] was 70 to 130 µm. For the same compound, the inhibition [10] was “Dose-dependent effect”, the MIC [11] was greater than 64 µg/mL and the MIC [12] was 2 µg/mL. For the same compound, the MIC [13] was 4 µg/mL, the MIC [14] was 32 µg/mL and the MIC [15] was greater than 64 µg/mL. For the same compound, the inhibition [16] was “Tde”, the MIC [17] was 8 µg/mL and the Activity [18] was 1 ×10³ CFU/ml. For the same compound, the MIC [19] was 16 µg/mL, the MIC [20] was 1 µg/mL and the MIC [21] was 2 µg/mL. The inhibition [22] was “Dose-dependent effect”, the inhibition [23] was 48.3% and the MBC [24] was 2 µg/mL. It also gave an MIC [25] of 4 µg/mL, an MIC [26] of 16 µg/mL and an inhibition [27] of 40.8%. The MIC [28] was 1 µg/mL, the Activity [29] was “Active” and the inhibition [30] was 30.2%. The MBC [31] was 4 µg/mL, the Activity [32] was “Dose-dependent effect” and the inhibition [33] was 17.9%. For the same compound, the Ratio [34] was 2.
`C[n+]1c(/C=C/c2c[nH]c3ccccc23)cc(N2CCCCC2)c2ccccc21.[I-]` showed an MIC [1] of 4 µg/mL, an inhibition [2] of 41.9% and a Ratio [3] of 2. For the same compound, the Ratio [5] was 4, the MIC [6] was 16 µg/mL and the MIC [7] was 4 µg/mL. The MIC [8] was greater than 64 µg/mL, the MIC [11] was greater than 64 µg/mL and the MIC [12] was 2 µg/mL. The MIC [13] was 4 µg/mL, the MIC [14] was 16 µg/mL and the MIC [15] was greater than 64 µg/mL. The MIC [17] was 8 µg/mL, the MIC [19] was 8 µg/mL and the inhibition [35] was “Active”. For the same compound, the MIC [20] was 1 µg/mL, the MIC [21] was 2 µg/mL and the inhibition [22] was “Dose-dependent effect”. The inhibition [23] was 34.3%, the MBC [24] was 2 µg/mL and the MIC [25] was 4 µg/mL. For the same compound, the MIC [26] was 16 µg/mL, the inhibition [27] was 31.8% and the MIC [28] was 2 µg/mL. For the same compound, the inhibition [30] was 27.8%, the MBC [31] was 4 µg/mL and the inhibition [33] was 13.6%. For the same compound, the Ratio [34] was 2.
